Patent US8198330B2, “Therapeutic or prophylactic agent for diabetes, obesity, dyslipidemia or metabolic syndrome comprising benzylamine derivative or pharmaceutically acceptable acid addition salt thereof” (Toray Industries, Inc., priority 2008, dated 2012)

Tested on: conscious rat
Experiment: Effect on the cardiovascular system (heart rate) of conscious rat
Type: in vivo
Conditions: conscious SD rat, s.c. 1, 3 and 10 mg/kg at 30 minute intervals, FIG. 2
Protocol: SD male rats of 7 weeks of age (Charles River Laboratories Japan Inc.) were purchased and used when they are 8 weeks of age. The rats were anesthetized by intraperitoneal administration of pentobarbital at 60 mg/kg; the back central region and the femoral region were cut open; a polyethylene tube (SP-31, Natsume Seisakusho Co., Ltd.) connected to a polyurethane tube (BC-3.5P, American Access Technologies) was inserted from the back to the femoral region, to place the polyethylene tube in femoral artery. After the femoral region was sutured, a flexible stainless steel pipe containing the polyethylene tube was sutured and fixed to the back skin. Heparin at 100 IU to 200 IU/mL was filled into the polyethylene tube and the polyurethane tube for prevention of blood clotting. After surgical operation, the rats were placed and grown back in 5-compartment wire mesh cage. […]
The heart rate of the rats was determined, by sending the pulse wave obtained in the blood pressure amplifier (AP-641G, Nihon Kohden Corp.) attached to the Life Kit for monitoring blood pressure to an instantaneous heart rate meter unit (AT-601T, Nihon Kohden Corp.). The heart rate was recorded on the chart paper in a thermal multirecorder (RIA-1300A, Nihon Kohden Corp.) by using a polygraph (RM-6000, Nihon Kohden Corp.). […]

In the case of `COc1cc(CN[C@@H](C)[C@H](O)c2ccc(O)c(NS(C)(=O)=O)c2)cc(OC)c1` [Example 1, N-(5-((1R,2S)-2-(3,5-Dimethoxybenzylamino)-1-hydroxypropyl)-2-hydroxyphenyl)methanesulfonamide], the “influence on heart rate” value is reported as “did not have any influence on rat heart rate”.
